Data taken from patent US9499523B2, “Phosphatidylinositol 3-kinase inhibitors” (Gilead Sciences, Inc., priority 2014, dated 2016).

Tests used:
PI3Kβ = PI3Kβ (Homo sapiens (Human), UniProt P42338); assay: TR-FRET enzymatic assay of PI3K isoforms, PI3Kβ; format: biochemical; conditions: for IC50: TR-FRET, 2×Km ATP, 30 minutes at 25° C.; for PI3Kγ/PI3Kβ ratio: ratio of IC50 values, selectivity for PI3Kβ over PI3Kγ
Experimental: (§1) The compounds of formula (I) were characterized for their enzymatic activity against the PI3K isoforms. The activities were measured using a time-resolved fluorescence resonance energy transfer (TR-FRET) assay. TR-FRET monitored the formation of 3,4,5-inositol triphosphate molecule that competed with fluorescently labeled PIP3 for binding to the GRP-1 pleckstrin homology domain protein.
(§2) Class I PI3K isoforms were expressed and purified as heterodimeric recombinant proteins. All assay reagents and buffers for the TR-FRET assay were purchased from Millipore. […] The reactions were terminated with a final concentration of 10 mM EDTA, 10 nM labeled-PIP3, and 35 nM Europium labeled GRP-1 detector protein before reading TR-FRET on an Envision plate reader (Ex: 340 nm; Em: 615/665 nm; 100 μs delay and 500 μs read window).
(§3) The results were normalized based on positive (1 μM wortmanin) and negative (DMSO) controls, and the IC50 values for PI3K α, β, δ and γ were calculated from the fit of the dose-response curves to a four-parameter equation.

PI3Kγ = PI3Kγ (Homo sapiens (Human), UniProt P48736); assay: TR-FRET enzymatic assay of PI3K isoforms, PI3Kγ; format: biochemical; conditions: 2×Km ATP, PI3Kγ at 2 nM, 30 minutes at 25° C.
Experimental: as §1, §2, §3

PI3Kδ = PI3Kδ (Homo sapiens (Human), UniProt O00329); assay: TR-FRET enzymatic assay of PI3K isoforms, PI3Kδ; conditions: read-out: PI3Kδ IC50, 2×Km ATP, 30 minutes at 25° C.
Sequence of PI3Kδ (O00329 whole entry, canonical isoform): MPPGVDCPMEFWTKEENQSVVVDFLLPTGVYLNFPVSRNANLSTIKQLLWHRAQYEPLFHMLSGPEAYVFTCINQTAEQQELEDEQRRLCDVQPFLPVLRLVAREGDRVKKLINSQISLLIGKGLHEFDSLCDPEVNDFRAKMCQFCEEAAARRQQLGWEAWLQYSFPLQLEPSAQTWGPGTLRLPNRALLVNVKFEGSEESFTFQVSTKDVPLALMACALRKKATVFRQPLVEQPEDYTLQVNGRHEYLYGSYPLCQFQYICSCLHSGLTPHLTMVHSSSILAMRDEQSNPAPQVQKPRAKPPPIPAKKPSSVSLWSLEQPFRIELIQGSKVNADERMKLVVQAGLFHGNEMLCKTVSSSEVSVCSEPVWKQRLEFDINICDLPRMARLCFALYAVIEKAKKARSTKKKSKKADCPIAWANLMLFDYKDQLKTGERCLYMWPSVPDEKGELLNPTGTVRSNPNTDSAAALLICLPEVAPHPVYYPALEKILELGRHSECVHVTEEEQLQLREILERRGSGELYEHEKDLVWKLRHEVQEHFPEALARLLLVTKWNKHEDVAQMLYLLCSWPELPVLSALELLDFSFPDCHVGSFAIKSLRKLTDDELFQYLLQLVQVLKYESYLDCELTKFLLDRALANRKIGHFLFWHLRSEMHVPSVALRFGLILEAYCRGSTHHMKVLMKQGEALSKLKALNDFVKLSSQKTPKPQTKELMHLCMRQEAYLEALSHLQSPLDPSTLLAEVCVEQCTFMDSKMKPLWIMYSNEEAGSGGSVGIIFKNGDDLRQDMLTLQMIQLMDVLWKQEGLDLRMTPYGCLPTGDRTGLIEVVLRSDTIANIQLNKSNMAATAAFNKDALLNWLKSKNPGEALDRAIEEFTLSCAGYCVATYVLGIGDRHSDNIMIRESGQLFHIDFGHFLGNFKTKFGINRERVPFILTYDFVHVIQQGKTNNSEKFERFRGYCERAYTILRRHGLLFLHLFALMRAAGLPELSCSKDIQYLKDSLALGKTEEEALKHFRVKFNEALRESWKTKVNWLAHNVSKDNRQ
Sequence of PI3Kδ (P27986 whole entry partner, canonical isoform): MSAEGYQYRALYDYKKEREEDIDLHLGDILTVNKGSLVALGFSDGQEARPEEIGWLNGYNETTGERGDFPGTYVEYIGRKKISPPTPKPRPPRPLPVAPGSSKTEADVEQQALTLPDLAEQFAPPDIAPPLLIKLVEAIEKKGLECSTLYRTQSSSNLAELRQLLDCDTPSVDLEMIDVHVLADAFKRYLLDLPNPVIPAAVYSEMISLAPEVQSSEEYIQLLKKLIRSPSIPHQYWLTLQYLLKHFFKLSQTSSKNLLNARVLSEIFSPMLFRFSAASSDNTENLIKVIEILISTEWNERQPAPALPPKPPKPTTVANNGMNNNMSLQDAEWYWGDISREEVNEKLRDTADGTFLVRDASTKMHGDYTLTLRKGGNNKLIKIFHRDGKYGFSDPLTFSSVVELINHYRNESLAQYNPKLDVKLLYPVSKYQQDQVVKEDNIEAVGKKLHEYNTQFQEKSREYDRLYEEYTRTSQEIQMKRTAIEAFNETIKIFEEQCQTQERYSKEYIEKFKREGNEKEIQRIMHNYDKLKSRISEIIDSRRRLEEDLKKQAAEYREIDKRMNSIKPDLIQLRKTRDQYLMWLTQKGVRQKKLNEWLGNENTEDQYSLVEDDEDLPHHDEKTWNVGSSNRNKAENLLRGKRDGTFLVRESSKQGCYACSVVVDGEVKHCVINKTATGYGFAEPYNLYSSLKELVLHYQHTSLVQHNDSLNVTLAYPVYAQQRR
Experimental: as §1, §2, §3

Sequence of PI3Kγ (P48736 whole entry, canonical isoform): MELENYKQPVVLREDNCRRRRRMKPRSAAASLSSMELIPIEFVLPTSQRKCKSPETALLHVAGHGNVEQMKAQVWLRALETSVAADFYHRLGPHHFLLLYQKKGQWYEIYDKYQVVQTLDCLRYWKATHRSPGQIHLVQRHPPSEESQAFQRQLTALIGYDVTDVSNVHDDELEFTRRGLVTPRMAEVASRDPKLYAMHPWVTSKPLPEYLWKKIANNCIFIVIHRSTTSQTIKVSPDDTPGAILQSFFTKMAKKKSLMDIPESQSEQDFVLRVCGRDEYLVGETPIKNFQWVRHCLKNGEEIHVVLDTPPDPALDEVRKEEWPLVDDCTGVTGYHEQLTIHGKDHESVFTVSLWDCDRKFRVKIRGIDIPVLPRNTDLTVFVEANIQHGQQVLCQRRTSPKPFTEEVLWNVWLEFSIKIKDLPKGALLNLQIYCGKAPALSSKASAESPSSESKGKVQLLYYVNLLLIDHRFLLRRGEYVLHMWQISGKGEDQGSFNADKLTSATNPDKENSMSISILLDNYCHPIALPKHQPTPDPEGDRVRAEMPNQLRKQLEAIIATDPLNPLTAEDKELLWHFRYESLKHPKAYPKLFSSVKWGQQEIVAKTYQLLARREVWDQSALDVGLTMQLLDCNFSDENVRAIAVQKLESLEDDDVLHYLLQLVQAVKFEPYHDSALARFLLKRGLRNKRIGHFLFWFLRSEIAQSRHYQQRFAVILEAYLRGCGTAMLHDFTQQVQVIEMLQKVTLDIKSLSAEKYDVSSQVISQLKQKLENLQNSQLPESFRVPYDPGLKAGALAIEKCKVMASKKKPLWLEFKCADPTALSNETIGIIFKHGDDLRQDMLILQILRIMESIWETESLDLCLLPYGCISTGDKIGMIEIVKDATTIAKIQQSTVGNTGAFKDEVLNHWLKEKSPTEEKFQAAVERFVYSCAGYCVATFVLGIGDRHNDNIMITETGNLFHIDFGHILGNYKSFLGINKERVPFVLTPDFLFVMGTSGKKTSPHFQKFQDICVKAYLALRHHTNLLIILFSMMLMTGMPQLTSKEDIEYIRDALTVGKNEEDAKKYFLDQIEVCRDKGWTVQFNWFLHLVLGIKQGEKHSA
Sequence of PI3Kβ (P42338 whole entry, canonical isoform): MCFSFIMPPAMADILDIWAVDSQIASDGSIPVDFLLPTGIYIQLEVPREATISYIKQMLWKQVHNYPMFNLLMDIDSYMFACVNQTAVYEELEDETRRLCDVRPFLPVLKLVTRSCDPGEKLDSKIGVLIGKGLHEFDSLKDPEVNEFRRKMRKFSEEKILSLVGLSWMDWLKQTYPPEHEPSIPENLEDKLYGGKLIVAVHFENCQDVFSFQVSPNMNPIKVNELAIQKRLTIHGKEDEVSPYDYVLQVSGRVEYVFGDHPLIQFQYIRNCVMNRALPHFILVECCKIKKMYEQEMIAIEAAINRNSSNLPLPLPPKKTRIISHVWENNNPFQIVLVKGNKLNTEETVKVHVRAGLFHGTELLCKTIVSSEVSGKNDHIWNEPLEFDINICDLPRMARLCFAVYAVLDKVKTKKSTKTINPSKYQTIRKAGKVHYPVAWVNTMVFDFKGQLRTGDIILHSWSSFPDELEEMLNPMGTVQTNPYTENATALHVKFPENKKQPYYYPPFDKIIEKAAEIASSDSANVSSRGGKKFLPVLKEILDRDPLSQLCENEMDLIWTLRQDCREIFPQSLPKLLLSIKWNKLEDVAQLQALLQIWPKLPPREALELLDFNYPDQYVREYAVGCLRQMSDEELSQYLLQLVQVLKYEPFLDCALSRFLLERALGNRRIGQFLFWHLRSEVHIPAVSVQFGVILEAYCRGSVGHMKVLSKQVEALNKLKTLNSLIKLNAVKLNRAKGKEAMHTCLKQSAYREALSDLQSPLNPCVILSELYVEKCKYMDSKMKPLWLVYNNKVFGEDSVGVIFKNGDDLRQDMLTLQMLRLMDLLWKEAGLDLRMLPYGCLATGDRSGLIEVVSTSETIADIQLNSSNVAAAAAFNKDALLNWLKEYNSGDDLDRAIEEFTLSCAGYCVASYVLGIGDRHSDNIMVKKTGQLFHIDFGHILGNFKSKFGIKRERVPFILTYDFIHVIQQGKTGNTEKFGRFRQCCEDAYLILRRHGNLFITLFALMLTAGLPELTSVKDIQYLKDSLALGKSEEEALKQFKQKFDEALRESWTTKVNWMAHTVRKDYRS
Sequence of PI3Kβ (P27986 whole entry partner, canonical isoform): as the sequence (P27986 whole entry partner, canonical isoform) above

Compound	IC50 (PI3Kβ) [nM]	IC50 (PI3Kγ) [nM]	IC50 (PI3Kδ) [nM]	PI3Kγ/PI3Kβ ratio (PI3Kβ)
C[C@H](Nc1ncnc2occc12)c1nc2c(F)ccc(Cl)c2c(=O)n1-c1cnc(N)cn1 [Compound 5, (S)-3-(5-amninopyrazin-2-yl)-5-chloro-8-fluoro-2-(1-(furo[2,3-d]pyrimidin-4-ylamino)ethyl)quinazolin-4(3H)-one]	5800	> 10000	2300	–
N#Cc1c(N)nc(N)nc1N[C@H](c1nc2cccc(Cl)c2c(=O)n1-c1cnc(N)cn1)C1CC1 [Compound 9]	4.2	900	2.7	–
C[C@H](Nc1ncnc2[nH]nnc12)c1nc2c(F)cccc2c(=O)n1-c1cnc(N)cn1 [Compound 4, (S)-2-(1-((3H-[1,2,3]triazolo[4,5-d]pyrimidin-7-yl)amino)ethyl)-3-(5-aminopyrazin-2-yl)-8-fluoroquinazolin-4(3H)-one]	> 10000	> 10000	2700	–
C[C@H](Nc1nc(N)nc(N)c1C#N)c1nc2cccc(Cl)c2c(=O)n1-c1ccccc1 [(S)-2,4-diamino-6-((1-(5-chloro-4-oxo-3-phenyl-3,4-dihydroquinazolin-2-yl)ethyl)amino)pyrimidine-5-carbonitrile, reference compound]	–	–	–	less than 1
Nc1cnc(-n2c([C@@H](Nc3nc(N)nc(N)c3Cl)C3CC3)nc3cccc(Cl)c3c2=O)cn1 [Compound 8, (S)-3-(5-aminopyrazin-2-yl)-5-chloro-2-(cyclopropyl((2,6-diamino-5-chloropyrimidin-4-yl)amino)methyl)quinazolin-4(3H)-one]	190	> 10000	24	–
C[C@H](Nc1ncnc(N)c1C#N)c1nc2c(F)ccc(Cl)c2c(=O)n1-c1cnc(N)cn1 [Compound 3, (S)-4-amino-6-((1-(3-(5-aminopyrazin-2-yl)-5-chloro-8-fluoro-4-oxo-3,4-dihydroquinazolin-2-yl)ethyl)amino)pyrimidine-5-carbonitrile]	74	> 10000	11	–
C[C@H](Nc1nc(N)nc(N)c1C#N)c1nc2cccc(Cl)c2c(=O)n1-c1cnc(N)cn1 [Compound 6, (S)-2,4-diamino-6-((1-(3-(5-aminopyrazin-2-yl)-5-chloro-4-oxo-3,4-dihydroquinazolin-2-yl)ethyl)amino)pyrimidine-5-carbonitrile]	2	280	2	–
Nc1cnc(-n2c([C@@H](Nc3ncnc(N)c3Cl)C3CC3)nc3cccc(Cl)c3c2=O)cn1 [Compound 21, (S)-2-(((6-Amino-5-chloropyrimidin-4-yl)amino)(cyclopropyl)methyl)-3-(5-aminopyrazin-2-yl)-5-chloroquinazolin-4(3H)-one]	720	> 10000	–	–
C[C@H](Nc1nc(N)nc(N)c1Cl)c1nc2cccc(Cl)c2c(=O)n1-c1cnc(N)cn1 [Compound 7, (S)-3-(5-aminopyrazin-2-yl)-5-chloro-2-(1-((2,6-diamino-5-chloropyrimidin-4-yl)amino)ethyl)quinazolin-4(3H)-one]	47	4000	24	–
Nc1cnc(-n2c([C@@H](Nc3nc(N)nc(N)c3Cl)C3CC3)nc3c(Cl)ccc(Cl)c3c2=O)cn1 [Compound 12, (S)-3-(5-aminopyrazin-2-yl)-5,8-dichloro-2-(cyclopropyl((2,6-diamino-5-chloropyrimidin-4-yl)amino)methyl)quinazolin-4(3H)-one]	1200	> 10000	97	–
C[C@H](Nc1nc(N)nc(N)c1C#N)c1nc2c(F)ccc(Cl)c2c(=O)n1-c1cnc(N)cn1 [Compound 2, (S)-2,4-diamino-6-((1-(3-(5-aminopyrazin-2-yl)-5-chloro-8-fluoro-4-oxo-3,4-dihydroquinazolin-2-yl)ethyl)amino)pyrimidine-5-carbonitrile]	4.4	630	3.5	–
N#Cc1c(N)nc(N)nc1N[C@H](c1nc2c(Cl)ccc(Cl)c2c(=O)n1-c1cnc(N)cn1)C1CC1 [Compound 10, (S)-2,4-diamino-6-(((3-(5-aminopyrazin-2-yl)-5,8-dichloro-4-oxo-3,4-dihydroquinazolin-2-yl)(cyclopropyl)methyl)amino)pyrimidine-5-carbonitrile]	3.6	3100	2.4	–
C[C@H](Nc1nc(N)nc(N)c1Cl)c1nc2c(Cl)ccc(Cl)c2c(=O)n1-c1cnc(N)cn1 [Compound 13, (S)-3-(5-aminopyrazin-2-yl)-5,8-dichloro-2-(1-((2,6-diamino-5-chloropyrimidin-4-yl)amino)ethyl)quinazolin-4(3H)-one]	170	> 10000	31	–
C[C@H](Nc1nc(N)nc(N)c1Cl)c1nc2c(F)ccc(Cl)c2c(=O)n1-c1cnc(N)cn1 [Compound 1, (S)-3-(5-aminopyrazin-2-yl)-5-chlor-2-(1-((2,6-diamino-5-chloropyrimidin-4-yl)amino)ethyl)-8-fluoroquinazolin-4(3H)-one]	54	> 10000	–	–
C[C@H](Nc1nc(N)nc(C(F)F)c1C#N)c1nc2c(Cl)cc(F)cc2c(=O)n1-c1cnc(N)cn1 [Compound 14, (S)-2-amino-4-((1-(3-(5-aminopyrazin-2-yl)-8-chloro-6-fluoro-4-oxo-3,4-dihydroquinazolin-2-yl)ethyl)amino)-6-(difluoromethyl)pyrimidine-5-carbonitrile]	200	> 10000	340	–
C[C@H](Nc1nc(N)nc(N)c1C#N)c1nc2c(F)cc(F)cc2c(=O)n1-c1cnc(N)cn1 [Compound 15, (S)-2,4-Diamino-6-((1-(3-(5-aminopyrazin-2-yl)-6,8-difluoro-4-oxo-3,4-dihydroquinazolin-2-yl)ethyl)amino)pyrimidine-5-carbonitrile]	9.8	1500	53	–
C[C@H](Nc1nc(N)nc(N)c1C#N)c1nc2cccc(Cl)c2c(=O)n1-c1cccnc1 [Compound X, (S)-2,4-diamino-6-((1-(5-chloro-4-oxo-3-(pyridin-3-yl)-3,4-dihydroquinazolin-2-yl)ethyl)amino)pyrimidine-5-carbonitrile, reference compound]	–	–	–	0.6
C[C@H](Nc1nc(N)nc(N)c1C#N)c1nc2c(Cl)ccc(Cl)c2c(=O)n1-c1cnc(N)cn1 [Compound 11, (S)-2,4-diamino-6-((1-(3-(5-aminopyrazin-2-yl)-5,8-dichloro-4-oxo-3,4-dihydroquinazolin-2-yl)ethyl)amino)pyrimidine-5-carbonitrile]	1.8	1500	1.9	–
C[C@H](Nc1nc(N)nc(N)c1C#N)c1nc2c(Cl)cc(F)cc2c(=O)n1-c1cnc(N)cn1 [Compound 17]	14	4900	32	–
